Paper PMC10994559 (PLOS Neglected Tropical Diseases, 2024)
Where “and” joins values, the source holds several entries; their conditions need not be identical. Equal entries are not always repeated. Where two headings read alike, the source gives them in different places.

Tests used:
L. major promastigotes = assay: L. major promastigote viability, resazurin reduction; format: cell-based, Leishmania major; details: Leishmania major, read-out: viability, L.major promastigote (25 µM)
Text: (§1) The infectivity of the parasites was boosted by passaging in Balb/c mice and culturing the infected lymph nodes after six weeks. L. infantum (MHOM / BR / 76 / M4192) parasite was passaged in the same media formulation with 0.5% urine.

[1] = system: L. infantum promastigotes; assay: L. infantum promastigote viability, resazurin reduction; format: cell-based, Leishmania infantum; details: Leishmania infantum, sheet LTC_compound_viability, value ± spread; for viability at 2.5 µM: read-out: viability, L. infantum promastigote (2.5 µM); for viability at 25 µM: read-out: viability, L. infantum promastigote (25 µM)
Text: as §1

[2] = system: L. major axenic amastigotes; assay: L. major axenic amastigote viability, resazurin reduction; details: Leishmania major; for viability at 25 µM: read-out: viability, L.major amastigote (25 µM); for viability at 2.5 µM: read-out: viability, L.major amastigote(2.5 µM)
In short: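 Axenic L. major LV561 amastigotes were grown in Grace medium with 20% FCS, pH 5.4, at 33°C and seeded at 0.5x10^5 cells/well with compounds for 72 h. Resazurin was then added for 6 h and fluorescence read at ex 550/em 590 nm; hits were retested at 2.5 μM.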

[3] = system: intracellular L. infantum amastigotes; assay: Parasite rescue assay (intramacrophage, J774 infected with L. infantum); format: cell-based, Leishmania infantum; details: for viability at 25 µM: J774, rescue assay in J774, 25 µM, read-out: Residual viability, intracellular L. infantum amastigote (25 µM)
T. brucei brucei BSF [4] = assay: T. brucei BSF viability, resazurin reduction; format: cell-based, Trypanosoma brucei brucei; details: for viability at 25 µM: read-out: viability, T.brucei (25 µM); for EC50: ± SD (Table 2) / ± SE (S3 Table)
T. cruzi trypomastigotes = assay: T. cruzi viability, resazurin reduction; format: cell-based, Trypanosoma cruzi; details: Trypanosoma cruzi; for viability at 2.5 µM: read-out: viability, T.cruzi (2.5 µM); for viability at 25 µM: read-out: viability, T.cruzi (25 µM)
In short: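 Y-strain trypomastigotes kept in supplemented liver infusion tryptose broth with 10% FCS, pH 7.2, at 28°C. Viability by fluorescence resazurin reduction; single-point screen at 2.5 μM, then 18-concentration dose response. Amphotericin B as control drug.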

E. histolytica = E. histolytica viability, ATP luminescence (Cell titer glo); format: cell-based, Entamoeba histolytica; details: Entamoeba histolytica; for viability at 2.5 µM: read-out: viability, E.histolytica (2.5 µM); for viability at 25 µM: read-out: viability, E.histolytica (25 µM)
In short: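 E. histolytica strain B2-5 at 2.5x10^4 cells/ml was exposed to compound for 48 h at 37 °C under anaerobic conditions, with viability read as ATP luminescence (CellTiter-Glo). The primary screen used 25 μM in triplicate, and follow-up potency runs used 9–16-point ranges spanning 0.01–100 μM.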

[5] = Cytotoxicity assay J774, resazurin reduction; format: cell-based, murine; details: mouse, J774 macrophage cells; for viability at 72 h, 2.5 µM: read-out: viability, J774 (2.5 µM); for viability at 72 h, 25 µM: read-out: viability, J774 (25 µM)
In short: (§2)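 J774 and HepG2 cells were seeded at 0.5x10^5 cell/well and exposed to serially diluted compounds for 72 h at 37°C, 5% CO2. Viability was read by fluorescence resazurin reduction (λEx 550 nm, λEm 590 nm).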

[6] = system: Murine macrophage cells (J774); assay: Cytotoxicity assay J774, resazurin reduction; format: cell-based; details: cytotoxicity, 72 h
In short: as §2

[7] = system: human hepatocyte carcinoma HepG2 cells; assay: Cytotoxicity assay HepG2, resazurin reduction; format: cell-based; details: cytotoxicity, 72 h, read-out: EC50 (CT50) HepG2
Experimental: Mammalian cell lines (J774 and HepG2) were passaged in RPMI media supplemented with MEM, Pen-Strep (1%) and 10% FCS. Cultures were kept at 37°C incubator with 5% CO2 in filter-cap flasks.
Murine macrophage cells (J774) and human hepatocyte carcinoma HepG2 cells were seeded at 0.5x10^5 cell/well in 384 well plates in triplicate, exposed to serial dilution of compounds, dispensed using an Echo 650 acoustic dispenser (Labcyte). After incubation for 72 h at 37°C, 5% CO2, cell viability was determined using fluorescence resazurin reduction assay (λEx: 550 nm; λEm: 590 nm).

T. brucei brucei BSF [8] = system: T. brucei brucei BSF; design: method as in PMID 29425238; details: read-out: reported EC50 T. brucei; cited from earlier work
[9] = system: intracellular L. infantum amastigotes; assay: Parasite rescue assay (intramacrophage, J774 infected with L. infantum); format: cell-based, Leishmania infantum; details: J774, 25 µM; intracellular amastigote; read-out: viability, intracellular L. major amastigote (25 µM)
[10] = Leishmania infantum, J774, read-out: EC50 L. infantum rescue assay, intramacrophage (J774), 18 concentrations
[11] = read-out: EC50 L. infantum rescue assay, intramacrophage (J774), 18 concentrations
[12] = Trypanosoma brucei, 2.5 µM, read-out: viability, T.brucei (2.5 µM)
[13] = Trypanosoma brucei, read-out: EC50 T. brucei BSF, dose response, triplicate

SMILES | viability at 25 µM (L. major promastigotes; 72 h) [%] | viability at 25 µM (L. major promastigotes; 25 µM) [%] | viability at 2.5 µM [1] [%] | viability at 25 µM [1] [%] | viability at 25 µM [2] [%] | viability at 2.5 µM [2] [%] | EC50 [3, 10] [µM] | viability at 25 µM ([3]; Leishmania infantum) [%] | EC50 [3, 11] | viability at 2.5 µM (T. brucei brucei BSF [4]; [12]) [%] | viability at 25 µM (T. brucei brucei BSF [4]; Trypanosoma brucei, 25 µM) [%] | EC50 (T. brucei brucei BSF [4]; [13]) [µM] | viability at 2.5 µM (T. cruzi trypomastigotes) [%] | viability at 25 µM (T. cruzi trypomastigotes) [%] | viability at 2.5 µM (E. histolytica) [%] | viability at 25 µM (E. histolytica) [%] | viability at 72 h, 2.5 µM [5] [%] | viability at 72 h, 25 µM [5] [%] | EC50 ([6]; Mus musculus, J774, 72 h) [µM] | EC50 [6] [µM] | other results
CC(C)(C)OC(=O)NC(Cc1ccccc1)C(O)CNc1ccc(OC(F)(F)F)cc1 (centres unmarked) [LTC-1023] | 88.6 ± 3.09 | 0.83 ± 1.76 | 67.5 ± 2.44 | 1.5 ± 0.05 | 18 ± 1.91 | 68.4 ± 1.28 | 4.1 ± 1.8 | 4.9 | 4.08 ± 1.8 µM | -1.06 ± 0.31 | 1.99 ± 1 | 1.1 ± 1.7 | 58.51 ± 0.23 | 23.2 ± 1.67 | 48.5 ± 4.19 | 59.6 ± 14.7 | 96.7 ± 4.49 | 75.7 ± 4.65 | > 25 | > 16 | viability at 2.5 µM (T. brucei brucei BSF [4]; Trypanosoma brucei, 72 h, read-out: Residual viability, T.brucei (2.5 µM), BSF, 2.5 µM, 72 h): < 10%; EC50 ([7]; Homo sapiens, HepG2, 72 h): 16.7 ± 1.9 µM; EC50 [7]: 31.6 µM and 16.7 µM
CC(C)(C)OC(=O)NC(Cc1ccccc1)C(O)CNc1cccc(C(F)(F)F)c1 (centres unmarked) [LTC-1025] | 88.3 ± 1.36 | 0.16 ± 0.69 | 55.3 ± 1.69 | 0.7 ± 0.03 | 21.2 ± 2.05 | 77 ± 1.6 | 2.9 ± 2.9 | 2.8 | 2.8 µM and 2.84 µM | 78 ± 4.59 | 2.26 ± 1.07 | 3.7 ± 1.7 | 63.1 ± 2.47 | 23.4 ± 2.5 | 45.9 ± 11.6 | 55.3 ± 4.32 | 75.1 ± 3.41 | 98.5 ± 8.61 | > 25 | > 16 | EC50 ([7]; Homo sapiens, HepG2, 72 h): 31.6 ± 1.7 µM; EC50 [7]: 33.8 µM and 31.6 µM
NCc1ccc(Oc2ccc3c(c2)COB3O)cc1 [AN3057, reference compound] |  |  |  |  |  |  |  |  |  |  |  |  |  |  |  |  |  |  |  |  | Residual viability, T.brucei (2.5 µM) (T. brucei brucei BSF [4]; BSF, 2.5 µM, 72 h): 0.3%; Residual viability, T.brucei (2.5 µM) (T. brucei brucei BSF [4]; BSF, 2.5 µM, 72 h, listed as An3057, 2.5 µM): 0.32±0.58%; Residual viability, T.brucei (25 µM) (T. brucei brucei BSF [4]; BSF, 25 µM, 72 h): -2.85±1.48%; EC50 (T. brucei brucei BSF [4]; dose response, triplicate, read-out: EC50 T. brucei BSF): 0.005 ± 0.002 µM; EC50 (T. brucei brucei BSF [8]): 0.0052 µM
COc1ccc(NC[C@H](O)[C@@H](N)Cc2ccccc2)cc1 [LTC-1042, (2S,3S)-3-Amino-1-((4-methoxyphenyl)amino)-4-phenylbutan-2-ol] | 86.4 ± 2.46 | 0.03 ± 0.1 | 81.7 ± 3.08 | 1.85 ± 0.19 | 39 ± 23.4 |  |  |  |  | 77.3 ± 2.39 | 2.38 ± 1.15 |  | 61.9 ± 1.61 | 18.6 ± 2.9 | 106 ± 18 | 125 ± 46.5 | 93.9 ± 4.73 | 97.8 ± 15.5 |  |  | melting point: 78 to 80 °C; viability at 25 µM [9]: 67.6 ± 19.8%
